Experimental data: patent US9918948B2, “Methods and compositions for treating symptoms associated with post-traumatic stress disorder using cyclobenzaprine” (TONIX PHARMA HOLDINGS LIMITED, priority 2009, dated 2018)
Read-outs that look alike come from different tables or passages of the source.

Experiments:
PTSD symptoms [1] = conditions: 1 to 4 mg orally at bedtime, alone or with sertraline or prazosin; PTSD present for greater than three months
Source text: In patients with well-established PTSD that has been present for greater than three months. At this point the usual natural history of the disease has progressed to the point where patients typically experience recurrent nightmares and daytime flashbacks associated with highly vivid memories of the traumatic event. […] In addition patients at this stage in the evolution of their disorder have a constellation of daytime symptoms consisting of hyperarousal, hypervigilance, exaggerated startle, and other signs of overactive vigilance behaviors. Also, at this point patients begin to engage in avoidant behaviors such that they actively avoided people and circumstances that might trigger memories of the traumatic event. Lastly, patients begin to experience daytime reexperiencing of their traumatic events in the form of flashbacks. […] These include hyperarousal, hypervigilance, exaggerated startle, and avoidant behavior.

fibromyalgia patients = conditions: 120 fibromyalgia patients, 10 to 40 mg, 12-week period; cited from earlier work
PTSD symptoms [2] = conditions: 1 to 4 mg orally at bedtime, alone or with sertraline or prazosin; one to three months after the trauma
Source text: At this point the usual natural history of the disease has progressed to the point where patients typically experience recurrent nightmares associated with their traumatic events. […] In addition patients at this stage in the evolution of their disorder have a constellation of daytime symptoms consisting of hyperarousal, hypervigilance, exaggerated startle, and other signs of overactive vigilance behaviors. Also, at this point patients begin to engage in avoidant behaviors such that they actively avoided people and circumstances that might trigger memories of the traumatic event. Lastly, patients begin to experience daytime reexperiencing of their traumatic events in the form of flashbacks. […] These include hyperarousal, hypervigilance, exaggerated startle, and avoidant behavior.

PTSD symptoms [3] = conditions: 1 to 4 mg orally at bedtime, alone or with sertraline or prazosin, started within one week of the trauma
[4] = system: sleep disturbance in PTSD; conditions: administered at bedtime; cited from earlier work

Q: With `CN(C)CCC=C1c2ccccc2C=Cc2ccccc21` [cyclobenzaprine, 3-(5H-dibenzo[a,d]cyclohepten-5-ylidene)-N,N-dimethyl-1-propanamine] as the compound, how does the “daytime symptoms not associated with sleep (hyperarousal, hypervigilance, exaggerated startle, avoidant behavior)” value (PTSD symptoms [1]) read?
A: greatly reduced or eliminated

Q: What about the “sleep associated symptomatology (nightmares, distress, insomnia, daytime fatigue, cognitive function)” value (PTSD symptoms [1]) of the same compound?
A: significant improvements

Q: And the pain score (fibromyalgia patients)?
A: significantly improved

Q: What about the quality of sleep (fibromyalgia patients) of the same compound?
A: significantly improved

Q: What about the “total number of tender points and muscle tightness” value (fibromyalgia patients) of the same compound?
A: reduction

Q: What about the “daytime symptoms not associated with sleep (hyperarousal, hypervigilance, exaggerated startle, avoidant behavior)” value (PTSD symptoms [2]) of the same compound?
A: greatly reduced or eliminated

Q: What about the “sleep associated symptomatology (nightmares, distress, insomnia, daytime fatigue, cognitive function)” value (PTSD symptoms [2]) of the same compound?
A: significant improvements

Q: And the “avoiding behavior or hyperarousal symptoms” value (PTSD symptoms [3])?
A: No avoiding behavior or hyperarousal symptoms develop

Q: What about the “daytime fatigue compared to untreated patients” value (PTSD symptoms [3]) of the same compound?
A: diminished

Q: What about the “sleep quality compared to untreated patients” value (PTSD symptoms [3]) of the same compound?
A: substantially better in quality

Q: And the “frequency of nightmares or flashbacks” value (PTSD symptoms [3]; three-month interval)?
A: declines eventually approaching zero

Q: For `COc1cc2nc(N3CCN(C(=O)c4ccco4)CC3)nc(N)c2cc1OC` [prazosin], which sleep [4] is on record?
A: improves sleep
